Test [1] deals with T1, Non-receptor tyrosine-protein kinase TNK1 (Homo sapiens) (UniProt Q13470).
T1 sequence (whole entry): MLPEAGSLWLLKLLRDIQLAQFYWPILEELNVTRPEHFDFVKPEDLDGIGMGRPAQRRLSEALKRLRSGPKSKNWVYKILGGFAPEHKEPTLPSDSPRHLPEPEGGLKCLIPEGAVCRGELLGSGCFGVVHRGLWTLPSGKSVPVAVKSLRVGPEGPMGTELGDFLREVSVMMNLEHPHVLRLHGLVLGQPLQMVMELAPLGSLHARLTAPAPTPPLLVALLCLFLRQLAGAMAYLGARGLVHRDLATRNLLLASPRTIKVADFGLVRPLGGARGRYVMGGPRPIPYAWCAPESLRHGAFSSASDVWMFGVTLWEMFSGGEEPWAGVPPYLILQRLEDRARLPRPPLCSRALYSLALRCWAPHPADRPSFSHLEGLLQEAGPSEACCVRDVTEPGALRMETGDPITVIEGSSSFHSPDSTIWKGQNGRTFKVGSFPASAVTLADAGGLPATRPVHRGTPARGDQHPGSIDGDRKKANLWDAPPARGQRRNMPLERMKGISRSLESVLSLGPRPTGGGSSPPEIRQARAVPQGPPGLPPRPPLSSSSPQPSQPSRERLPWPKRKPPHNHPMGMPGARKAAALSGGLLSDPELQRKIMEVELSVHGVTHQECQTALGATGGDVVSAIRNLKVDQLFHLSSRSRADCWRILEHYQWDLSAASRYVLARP
Kind of test: Selectivity interaction (KinomeScan (DiscoverX)) EUB0000595a TNK1. The settings on record: at 10 µM.

Test [2] has as its target Mitogen-activated protein kinase 1 (Homo sapiens, UniProt P28482). Kind of test: Selectivity interaction (ProQinase) EUB0000171b MAPK1.
Test [3] addresses T2, Serine/threonine-protein kinase haspin (Homo sapiens) (UniProt Q8TF76).
T2 sequence (whole entry): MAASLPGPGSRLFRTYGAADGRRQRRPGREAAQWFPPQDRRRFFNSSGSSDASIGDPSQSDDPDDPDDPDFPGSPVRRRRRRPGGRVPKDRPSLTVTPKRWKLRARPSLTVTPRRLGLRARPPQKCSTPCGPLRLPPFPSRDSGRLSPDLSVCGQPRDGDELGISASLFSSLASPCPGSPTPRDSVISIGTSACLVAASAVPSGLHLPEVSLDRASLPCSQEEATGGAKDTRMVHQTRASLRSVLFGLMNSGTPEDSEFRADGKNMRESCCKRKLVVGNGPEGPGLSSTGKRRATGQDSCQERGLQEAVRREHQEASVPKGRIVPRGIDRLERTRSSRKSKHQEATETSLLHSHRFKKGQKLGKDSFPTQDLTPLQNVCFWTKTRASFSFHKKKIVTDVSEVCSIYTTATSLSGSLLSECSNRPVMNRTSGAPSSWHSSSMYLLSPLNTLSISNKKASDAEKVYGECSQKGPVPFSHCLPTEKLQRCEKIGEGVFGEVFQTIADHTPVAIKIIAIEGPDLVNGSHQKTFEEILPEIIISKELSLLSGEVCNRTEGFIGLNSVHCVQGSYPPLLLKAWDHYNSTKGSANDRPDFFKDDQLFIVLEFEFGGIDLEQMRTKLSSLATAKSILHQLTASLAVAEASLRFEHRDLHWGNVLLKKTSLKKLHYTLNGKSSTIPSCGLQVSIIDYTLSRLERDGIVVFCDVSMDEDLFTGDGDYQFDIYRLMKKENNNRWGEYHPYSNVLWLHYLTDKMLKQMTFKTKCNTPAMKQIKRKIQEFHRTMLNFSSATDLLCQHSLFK
The test can be described thus: Selectivity interaction (ProQinase) EUB0000171b GSG2.

In test [4] the target is CDK3/cyclin E (Homo sapiens) (UniProt P24864+O96020+Q00526). Kind of test: Selectivity interaction (Upstate Kinase Profiler service (Millipore)) EUB0000056c CDK3. The settings on record: at 1 µM. Type of test: protein-complex assay.
CDK3/cyclin E (Homo sapiens), sequence (O96020 whole entry, looked up): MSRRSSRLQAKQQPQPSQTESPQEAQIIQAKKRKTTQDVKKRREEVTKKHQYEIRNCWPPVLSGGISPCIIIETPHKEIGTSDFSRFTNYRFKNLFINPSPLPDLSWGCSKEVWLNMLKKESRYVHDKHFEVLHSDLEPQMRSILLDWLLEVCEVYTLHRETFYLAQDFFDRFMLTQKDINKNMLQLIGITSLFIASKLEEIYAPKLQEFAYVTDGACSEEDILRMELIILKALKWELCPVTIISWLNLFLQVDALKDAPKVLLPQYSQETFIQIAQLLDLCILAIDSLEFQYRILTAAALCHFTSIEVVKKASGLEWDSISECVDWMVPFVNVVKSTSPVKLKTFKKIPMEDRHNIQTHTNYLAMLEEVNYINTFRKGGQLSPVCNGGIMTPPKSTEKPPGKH
CDK3/cyclin E (Homo sapiens), sequence (P24864 whole entry, looked up): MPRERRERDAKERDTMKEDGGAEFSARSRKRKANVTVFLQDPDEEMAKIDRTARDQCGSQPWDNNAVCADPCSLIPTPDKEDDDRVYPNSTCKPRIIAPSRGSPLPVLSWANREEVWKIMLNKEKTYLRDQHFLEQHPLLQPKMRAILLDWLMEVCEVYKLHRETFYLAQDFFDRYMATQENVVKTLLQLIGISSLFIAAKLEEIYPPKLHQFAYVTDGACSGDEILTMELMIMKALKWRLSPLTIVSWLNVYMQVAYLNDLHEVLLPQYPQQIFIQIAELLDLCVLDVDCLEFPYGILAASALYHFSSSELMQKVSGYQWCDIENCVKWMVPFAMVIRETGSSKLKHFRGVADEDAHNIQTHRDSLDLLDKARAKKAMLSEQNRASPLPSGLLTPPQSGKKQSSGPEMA
CDK3/cyclin E (Homo sapiens), sequence (Q00526 whole entry, looked up): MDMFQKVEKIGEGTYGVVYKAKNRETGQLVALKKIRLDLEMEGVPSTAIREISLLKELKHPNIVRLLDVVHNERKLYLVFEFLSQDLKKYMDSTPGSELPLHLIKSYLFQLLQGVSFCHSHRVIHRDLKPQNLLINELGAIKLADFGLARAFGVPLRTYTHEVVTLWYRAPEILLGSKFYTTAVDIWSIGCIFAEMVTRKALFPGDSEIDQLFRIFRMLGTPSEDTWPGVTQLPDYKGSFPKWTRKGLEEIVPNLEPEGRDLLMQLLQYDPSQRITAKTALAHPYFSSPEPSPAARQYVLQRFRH
The subject of test [5] is Tyrosine-protein kinase ABL1 (Homo sapiens), P00519 [T315I]. Kind of test: (§1) Selectivity interaction (Millipore kinase profiler) EUB0000124b ABL1. Particulars: at 10 µM.
Test [6] concerns the target Tyrosine-protein kinase ABL1 (Homo sapiens, UniProt P00519). The test is described as §1. The settings on record: at 10 µM.
In test [7] the test system is Epidermal growth factor receptor (Homo sapiens), P00533 [UNDEFINED MUTATION]. The test can be described thus: Selectivity interaction (KinomeScan (DiscoverX)) EUB0000229b EGFR. Particulars: at 1 µM.
Epidermal growth factor receptor (Homo sapiens), P00533 [UNDEFINED MUTATION], sequence (P00533 whole entry, looked up, change not shown): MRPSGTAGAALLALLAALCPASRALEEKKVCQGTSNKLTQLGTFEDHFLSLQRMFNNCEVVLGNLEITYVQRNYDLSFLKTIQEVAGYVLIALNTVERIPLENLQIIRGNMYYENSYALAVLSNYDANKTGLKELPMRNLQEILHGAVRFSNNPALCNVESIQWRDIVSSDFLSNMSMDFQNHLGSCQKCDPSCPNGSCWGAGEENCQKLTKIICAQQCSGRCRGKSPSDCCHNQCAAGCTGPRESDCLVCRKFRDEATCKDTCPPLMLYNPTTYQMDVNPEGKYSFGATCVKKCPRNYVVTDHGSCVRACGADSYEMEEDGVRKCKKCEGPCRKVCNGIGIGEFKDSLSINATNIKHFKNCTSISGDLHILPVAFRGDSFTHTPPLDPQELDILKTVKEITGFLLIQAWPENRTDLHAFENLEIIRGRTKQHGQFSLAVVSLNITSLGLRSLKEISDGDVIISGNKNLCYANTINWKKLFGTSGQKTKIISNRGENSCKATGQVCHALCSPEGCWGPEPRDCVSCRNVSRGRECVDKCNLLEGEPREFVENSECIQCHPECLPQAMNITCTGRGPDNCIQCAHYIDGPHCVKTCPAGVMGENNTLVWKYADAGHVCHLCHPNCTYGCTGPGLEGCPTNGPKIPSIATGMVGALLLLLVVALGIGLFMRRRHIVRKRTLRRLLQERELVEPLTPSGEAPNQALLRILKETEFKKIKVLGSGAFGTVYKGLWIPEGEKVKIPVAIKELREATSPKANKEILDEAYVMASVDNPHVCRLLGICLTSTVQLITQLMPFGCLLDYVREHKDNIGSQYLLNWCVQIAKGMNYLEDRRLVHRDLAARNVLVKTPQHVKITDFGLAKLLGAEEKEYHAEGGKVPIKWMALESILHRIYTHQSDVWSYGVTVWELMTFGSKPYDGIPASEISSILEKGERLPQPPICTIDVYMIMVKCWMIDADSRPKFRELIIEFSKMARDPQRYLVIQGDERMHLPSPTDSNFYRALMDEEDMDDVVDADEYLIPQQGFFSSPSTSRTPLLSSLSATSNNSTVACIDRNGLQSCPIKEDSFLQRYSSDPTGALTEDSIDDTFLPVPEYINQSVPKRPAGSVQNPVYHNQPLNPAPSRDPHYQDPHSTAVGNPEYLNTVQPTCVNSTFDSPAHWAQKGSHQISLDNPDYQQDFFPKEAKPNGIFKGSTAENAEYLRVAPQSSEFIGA
Test [8] addresses T3, Dual specificity protein kinase TTK (Homo sapiens) (UniProt P33981).
T3 sequence (whole entry): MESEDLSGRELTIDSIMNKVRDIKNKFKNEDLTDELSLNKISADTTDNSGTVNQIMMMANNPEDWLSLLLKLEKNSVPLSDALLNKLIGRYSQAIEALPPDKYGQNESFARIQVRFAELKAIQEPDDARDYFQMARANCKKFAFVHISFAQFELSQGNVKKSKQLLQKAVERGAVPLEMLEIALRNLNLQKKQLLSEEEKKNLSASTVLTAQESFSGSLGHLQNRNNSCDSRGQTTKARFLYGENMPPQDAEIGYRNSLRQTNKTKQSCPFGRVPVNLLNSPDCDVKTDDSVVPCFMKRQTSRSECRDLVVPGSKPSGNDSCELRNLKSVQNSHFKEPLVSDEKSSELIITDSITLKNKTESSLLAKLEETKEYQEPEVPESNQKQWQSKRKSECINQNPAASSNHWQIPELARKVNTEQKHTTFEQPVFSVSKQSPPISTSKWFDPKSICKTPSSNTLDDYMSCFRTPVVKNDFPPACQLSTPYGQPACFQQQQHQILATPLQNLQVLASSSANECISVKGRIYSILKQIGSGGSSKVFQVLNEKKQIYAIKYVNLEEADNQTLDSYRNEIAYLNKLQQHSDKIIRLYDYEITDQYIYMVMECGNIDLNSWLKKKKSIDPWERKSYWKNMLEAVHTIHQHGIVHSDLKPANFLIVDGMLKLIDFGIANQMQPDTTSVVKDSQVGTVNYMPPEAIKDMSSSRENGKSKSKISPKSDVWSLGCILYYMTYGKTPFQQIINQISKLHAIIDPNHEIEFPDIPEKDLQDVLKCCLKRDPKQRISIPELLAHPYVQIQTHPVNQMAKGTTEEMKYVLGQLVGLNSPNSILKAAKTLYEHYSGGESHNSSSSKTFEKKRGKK
Kind of test: Selectivity interaction (KinomeScan (DiscoverX)) EUB0000229b TTK. The settings on record: at 10 µM.

Mitogen-activated protein kinase 1, sequence (P28482 whole entry): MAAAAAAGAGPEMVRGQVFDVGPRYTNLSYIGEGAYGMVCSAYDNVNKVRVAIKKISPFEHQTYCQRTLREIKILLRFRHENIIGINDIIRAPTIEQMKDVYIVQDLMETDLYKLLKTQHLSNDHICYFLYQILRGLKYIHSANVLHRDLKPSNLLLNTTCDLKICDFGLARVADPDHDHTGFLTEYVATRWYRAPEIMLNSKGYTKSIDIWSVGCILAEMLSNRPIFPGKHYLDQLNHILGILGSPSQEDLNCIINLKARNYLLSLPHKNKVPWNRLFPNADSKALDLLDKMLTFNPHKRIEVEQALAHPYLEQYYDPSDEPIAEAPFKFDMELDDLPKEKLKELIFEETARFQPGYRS

`COCC(=O)NC/C=C/c1ccc2ncnc(Nc3ccc(Oc4ccc(C)nc4)c(C)c3)c2c1` [CP-724714] gave a % of control in test [1] of 86%.
`C=CC(=O)Nc1cccc(C(=O)Nc2ccc(Nc3cc(-c4[nH]c(SC)nc4C)ccn3)cc2)c1`: the % of control in test [2] (at 1 µM) was 96%; in test [2] (at 5 µM), 100%; in test [3] (at 1 µM) it was 84%; in test [3] (at 5 µM), 56%.
For `Cc1ccc(-c2ccc3c(ccc4sc5c(c43)NC[C@@H](C)NC5=O)n2)cn1`, the % of inhibition in test [4] came out at 5%.
For the compound `CC(=O)Nc1cccc(-n2c(=O)n(C3CC3)c(=O)c3c(Nc4ccc(I)cc4F)n(C)c(=O)c(C)c32)c1`, the % of control was 112% in test [5] and 95% in test [6].
Take `COc1cc(N(C)c2ccnc3ccc(C(F)(F)F)cc23)cc(OC)c1OC`: the % binding in test [7] stood at 92%; in test [8], 60%.
